{"source": "patent US8604021B2", "about": "“Substituted arylamine compounds and methods of treatment” (priority 2005, dated 2013)", "key": {"D2": {"molecular_target": "D2 (Homo sapiens, UniProt P14416)", "sequence (P14416 whole entry)": "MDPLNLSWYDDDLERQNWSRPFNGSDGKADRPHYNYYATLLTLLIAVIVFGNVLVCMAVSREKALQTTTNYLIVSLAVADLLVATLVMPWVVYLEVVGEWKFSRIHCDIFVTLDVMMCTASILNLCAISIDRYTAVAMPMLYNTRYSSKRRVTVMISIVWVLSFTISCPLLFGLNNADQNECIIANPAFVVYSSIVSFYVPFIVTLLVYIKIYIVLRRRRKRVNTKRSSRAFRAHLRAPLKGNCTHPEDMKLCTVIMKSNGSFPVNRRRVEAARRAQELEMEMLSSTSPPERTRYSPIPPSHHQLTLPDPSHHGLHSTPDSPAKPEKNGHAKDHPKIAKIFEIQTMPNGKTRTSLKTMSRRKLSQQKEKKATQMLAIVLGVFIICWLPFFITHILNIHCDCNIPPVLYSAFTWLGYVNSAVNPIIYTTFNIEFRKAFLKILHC", "assay": "Compound Binding Profiles: D2", "details": "* = Estimated IC50"}, "M1": {"molecular_target": "T1, M1 (Homo sapiens, UniProt P11229)", "T1 sequence (P11229 1-460)": "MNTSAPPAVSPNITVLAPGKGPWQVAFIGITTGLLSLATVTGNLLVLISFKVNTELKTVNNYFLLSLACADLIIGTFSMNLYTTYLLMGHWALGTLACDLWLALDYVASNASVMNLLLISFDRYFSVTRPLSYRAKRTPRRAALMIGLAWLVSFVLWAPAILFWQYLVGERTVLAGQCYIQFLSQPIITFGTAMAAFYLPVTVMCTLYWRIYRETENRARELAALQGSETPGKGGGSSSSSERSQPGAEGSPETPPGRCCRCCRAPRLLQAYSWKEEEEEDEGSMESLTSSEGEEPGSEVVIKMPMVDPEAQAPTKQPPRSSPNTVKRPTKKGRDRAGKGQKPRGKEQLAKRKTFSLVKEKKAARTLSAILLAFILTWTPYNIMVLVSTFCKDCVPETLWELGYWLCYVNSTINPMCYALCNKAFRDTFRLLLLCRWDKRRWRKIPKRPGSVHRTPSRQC", "assay": "Compound Binding Profiles: M1", "details": "* = Estimated IC50"}, "H1": {"molecular_target": "H1 (Homo sapiens, UniProt P35367)", "sequence (P35367 whole entry)": "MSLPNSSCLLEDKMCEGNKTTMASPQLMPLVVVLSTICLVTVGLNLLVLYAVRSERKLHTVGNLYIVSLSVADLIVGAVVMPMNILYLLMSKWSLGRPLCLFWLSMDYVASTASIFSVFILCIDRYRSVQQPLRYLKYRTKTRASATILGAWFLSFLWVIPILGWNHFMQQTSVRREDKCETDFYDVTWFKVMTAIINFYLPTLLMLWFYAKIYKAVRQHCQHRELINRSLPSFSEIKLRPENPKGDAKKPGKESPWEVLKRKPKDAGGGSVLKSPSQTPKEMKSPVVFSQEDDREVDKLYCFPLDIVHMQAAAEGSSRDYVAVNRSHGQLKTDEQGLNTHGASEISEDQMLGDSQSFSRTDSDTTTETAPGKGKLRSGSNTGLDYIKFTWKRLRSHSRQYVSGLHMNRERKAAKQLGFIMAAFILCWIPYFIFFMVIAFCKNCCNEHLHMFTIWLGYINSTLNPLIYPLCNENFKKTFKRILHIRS", "assay": "Compound Binding Profiles: H1", "details": "* = Estimated IC50"}, "[1]": {"assay": "Novel object recognition test", "assay_type": "in vivo, C57Bl/6J mice", "details": "for Memory index, Mean: 10 min test; for Exploration time, Diff of Means 10% DMSO vs. treatment: within Familiar; for Exploration time, Diff of Means treatment vs. 10% DMSO: within Novel", "description": "Male C57Bl/6J mice from Jackson Laboratories (Bar Harbor, Me.) were used. Mice were received at 6-weeks of age. Upon receipt, mice were assigned unique identification numbers (tail marked) and were group housed in polycarbonate cages with filter tops. All animals remained housed in groups of four during the remainder of the study. All mice were acclimated to the colony room for at least two weeks prior to testing and were subsequently tested at an average age of 8 weeks of age. During the period of acclimation, mice were examined on a regular basis, handled, and weighed to assure adequate health and suitability. Mice were maintained on a 12/12 light/dark cycle with the light on at 6:00 a.m. The room temperature was maintained between 20 and 23° C. with a relative humidity maintained between 30% and 70%. Chow and water were provided ad libitum for the duration of the study. In each test, animals were randomly assigned across treatment groups.\nThe pH at the 10 mg/kg was around 5.5.\nRolipram, also dissolved in 10% DMSO was only administered 20 min prior to training on Day 2.\nOn Day 1, mice were habituated to a circular open field environment (d=18 in, h=15 cm) for one hour in cage groups of four. Each Arena was constructed out of acrylic that was painted black to block reflection. On day 2, mice were placed back into the same arena for a training trial and allowed to explore a set of two identical objects placed equidistance apart from both each other and the arena walls. Individual mice were trained for a total of 15 minutes and then placed back into their home cages. On Day 3, mice were placed back into the same arena in the presence of both the familiar (previously explored) and a novel object. The spatial positions of the familiar and novel object (i.e. left-right sides) were counterbalanced between subjects. The difference in time spent exploring each object during the test trial was used as an index of object recognition and memory retention. Each animals test trial was recorded and these tapes were observed and scored after test completion. The first 10 min of each session was scored and object recognition was computed using the formula: (Time spent with novel object*100)/(Total Time exploring both objects). Tissue Harvest\nData were analyzed by analysis of variance (ANOVA) followed by post-hoc comparisons with Fisher Tests when appropriate. An effect was considered significant if p<0.05. Data are represented as the mean and standard error to the mean."}, "CYP2C9": {"molecular_target": "CYP2C9 (Homo sapiens, UniProt P11712)", "sequence (P11712 whole entry)": "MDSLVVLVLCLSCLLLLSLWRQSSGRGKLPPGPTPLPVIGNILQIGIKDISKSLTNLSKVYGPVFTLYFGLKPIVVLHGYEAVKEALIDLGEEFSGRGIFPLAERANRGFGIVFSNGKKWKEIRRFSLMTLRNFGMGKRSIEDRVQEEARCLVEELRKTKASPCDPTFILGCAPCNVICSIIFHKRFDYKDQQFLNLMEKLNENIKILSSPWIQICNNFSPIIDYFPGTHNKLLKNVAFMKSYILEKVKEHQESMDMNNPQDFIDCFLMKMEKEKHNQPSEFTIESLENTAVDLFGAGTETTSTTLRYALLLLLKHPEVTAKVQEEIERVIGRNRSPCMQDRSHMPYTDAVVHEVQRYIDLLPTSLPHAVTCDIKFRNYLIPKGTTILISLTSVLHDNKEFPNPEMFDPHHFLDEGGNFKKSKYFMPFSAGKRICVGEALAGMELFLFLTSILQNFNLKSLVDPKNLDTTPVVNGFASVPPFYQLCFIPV", "assay": "CYP inhibition CYP2C9"}, "CYP2C19": {"molecular_target": "CYP2C19 (Homo sapiens, UniProt P33261)", "sequence (P33261 whole entry)": "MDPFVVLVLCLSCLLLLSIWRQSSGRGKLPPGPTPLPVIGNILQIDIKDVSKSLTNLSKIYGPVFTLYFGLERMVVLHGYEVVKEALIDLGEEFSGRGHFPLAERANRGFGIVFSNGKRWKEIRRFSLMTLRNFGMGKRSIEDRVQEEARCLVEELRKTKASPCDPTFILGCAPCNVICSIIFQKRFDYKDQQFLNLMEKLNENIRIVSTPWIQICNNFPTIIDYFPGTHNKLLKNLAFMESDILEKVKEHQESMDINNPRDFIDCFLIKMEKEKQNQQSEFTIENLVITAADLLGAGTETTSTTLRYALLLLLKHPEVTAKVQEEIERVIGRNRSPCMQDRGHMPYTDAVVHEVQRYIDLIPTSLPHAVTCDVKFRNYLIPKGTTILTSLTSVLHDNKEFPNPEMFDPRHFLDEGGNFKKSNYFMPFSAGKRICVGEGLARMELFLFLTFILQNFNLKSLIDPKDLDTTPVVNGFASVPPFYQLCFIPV", "assay": "CYP inhibition CYP2C19"}}, "note": "Entries after “also recorded” stand apart in the source; their conditions may differ.", "data": [{"smiles": "COc1cc(Cl)cc(C(C)Nc2cc(N3CCNCC3)ccc2S(C)(=O)=O)c1OC.Cl", "note": "(stereo not drawn) [Compound A, [1-(5-Chloro-2,3-dimethoxy-phenyl)-ethyl]-(2-methanesulfonyl-5-piperazin-1-yl-phenyl)-amine hydrochloride]", "values": [{"measurement": "IC50", "setting": "D2", "result": 9, "unit": "µM"}, {"measurement": "IC50", "setting": "M1", "result": 3.4, "unit": "µM"}, {"measurement": "IC50", "setting": "H1", "result": 22, "unit": "µM"}, {"measurement": "Exploration time, Diff of Means Novel vs. Familiar", "setting": "[1]; 1 mg/kg", "result": 14.456}, {"measurement": "Memory index, Mean Diff. Vehicle versus treatment (Fisher's PLSD)", "setting": "[1]; 1 mg/kg", "result": "−4.573"}, {"measurement": "Memory index, Mean", "setting": "[1]; 1 mg/kg i.p.", "result": 61.179}, {"measurement": "Exploration time, Mean", "setting": "[1]; 1 mg/kg, Familiar Object", "result": 24.810}, {"measurement": "Exploration time, Mean", "setting": "[1]; 1 mg/kg, Novel Object", "result": 39.266}, {"measurement": "Exploration time, Diff of Means Novel vs. Familiar", "setting": "[1]; 3 mg/kg", "result": 23.871}, {"measurement": "effect on recognition index / object recognition compared to vehicle", "setting": "[1]; 3 mg/kg and 10 mg/kg, hydrochloride", "result": "significantly increased the recognition index; also recorded: significant, positive effect on object recognition"}, {"measurement": "Memory index, Mean", "setting": "[1]; 3 mg/kg i.p.", "result": 68.946}, {"measurement": "Exploration time, Mean", "setting": "[1]; 3 mg/kg, Familiar Object", "result": 17.506}, {"measurement": "Exploration time, Mean", "setting": "[1]; 3 mg/kg, Novel Object", "result": 41.377}, {"measurement": "Exploration time, Diff of Means Novel vs. Familiar", "setting": "[1]; 10 mg/kg", "result": 18.878}, {"measurement": "Memory index, Mean Diff. Vehicle versus treatment (Fisher's PLSD)", "setting": "[1]; 10 mg/kg", "result": "−9.784"}, {"measurement": "Memory index, Mean", "setting": "[1]; 10 mg/kg i.p.", "result": 66.391}, {"measurement": "Exploration time, Mean", "setting": "[1]; 10 mg/kg, Familiar Object", "result": 16.153}, {"measurement": "Exploration time, Mean", "setting": "[1]; 10 mg/kg, Novel Object", "result": 35.031}, {"measurement": "time exploring novel object versus familiar object", "setting": "[1]; 1, 3, and 10 mg/kg", "result": "spent more time exploring novel object than the familiar object"}, {"measurement": "Exploration time, Diff of Means 10% DMSO vs. treatment", "setting": "[1]; 1 mg/kg", "result": 0.831}, {"measurement": "Exploration time, Diff of Means 10% DMSO vs. treatment", "setting": "[1]; 3 mg/kg", "result": 6.473}, {"measurement": "Exploration time, Diff of Means 10% DMSO vs. treatment", "setting": "[1]; 10 mg/kg", "result": 7.826}, {"measurement": "Exploration time, Diff of Means treatment vs. 10% DMSO", "setting": "[1]; 1 mg/kg", "result": 8.282}, {"measurement": "Exploration time, Diff of Means treatment vs. 10% DMSO", "setting": "[1]; 3 mg/kg", "result": 10.393}, {"measurement": "Exploration time, Diff of Means treatment vs. 10% DMSO", "setting": "[1]; 10 mg/kg", "result": 4.047}, {"measurement": "IC50", "setting": "CYP2C9", "result": "> 7.5", "unit": "µM"}, {"measurement": "IC50", "setting": "CYP2C19", "result": "> 7.5", "unit": "µM"}]}]}
